The source of these data is patent EP1146895B1, “THROMBOPOIETIN COMPOSITIONS FOR INCREASING CIRCULATING PLATELETS” (BOARD OF REGENTS, THE UNIVERSITY OF TEXAS SYSTEM, priority 1999, dated 2000).

One data set has as its system platelets. Nature of the data set: Reversible block of in vitro ADP- and collagen-induced aggregation by second messenger effectors. It is filed as cell-based. Conditions: agonist (ADP, collagen)-induced. An excerpt:
The reversible inhibition induced by this formulation effectively reduces the development of the platelet storage lesion when platelets are cryopreserved. The following is a brief description of the second messenger pathways manipulated in order to control activation of platelets during storage, and the specific inhibitors used to abrogate the initiation of the respective pathways.

The next data set relates to recurrent ovarian cancer. To be noted: 800 mg/m^2 without cytokine support, 30 patients (Ozols et al., 1987); cited from earlier work.
Data set [1] deals with carboplatin-induced thrombocytopenia. Briefly: Phase I/II study of subcutaneous rhTPO prior to and following carboplatin in gynecologic malignancy: hematologic effects. Conditions: for Number (%) of Patients Requiring Platelet Transfusions: Cycle-1 (Carboplatin) or Cycle-2 (Carboplatin+ rhTPO). The source says:
Carboplatin is effective in advanced-stage platin-sensitive recurrent disease; however, cumulative thrombocytopenia is frequently dose-limiting. […] During dose-escalation phase, rhTPO was given by S.C. injection as a single dose (0.6, 1.2, 2.4, 3.6 mcg/kg) prior to carboplatin and for four doses following a second cycle of carboplatin. […]
The inventor performed a phase I/II study of rhTPO prior to and following carboplatin in 29 patients with advanced gynecologic malignancy. During the dose-escalation phase, rhTPO was administered by subcutaneous injection as a single dose (0.6, 1.2, 2.4, and 3.6 mcg/kg) prior to carboplatin, and for four doses following a second cycle of carboplatin. During dose-expansion phase (n=12). rhTPO was used at the optimal biologic dose only as a secondary prophylaxis for severe thrombocytopenia.
The study included two components, a dose-escalation (safety) component and dose-expansion (activity) component using the optimal dose. During the dose-escalation part of this trial, rhTPO was administered as a single dose by subcutaneous injection 3 weeks before chemotherapy in order to evaluate clinical tolerance and the hematopoietic effects of rhTPO alone. […] Thus Cycle- 1 (chemotherapy alone) served as an internal control for each patient for Cycle-2 (chemotherapy with rhTPO).
At least three patients were entered at each dose level of rhTPO (0.6, 1.2, 2.4, and 3.6 mcg/m^2/d). […] In the subsequent cycles, rhTPO was used at OBD as a secondary prophylaxis by same schedule [days 2, 4, 6, 8 (n=6)] or by a modified schedule [days -1, 1, 3, 5 (n=6)]. The latter schedule was used to assess whether earlier administration of TPO can further augment the degree of protection.
Patients received platelet transfusions for severe thrombocytopenia (i.e. platelet count <20,000/mm^3), RBC transfusions for anemia (i.e. hemoglobin [Hb]<8 gm/dL), and antibiotics for neutropenic fever (i.e. temperature ≥38.3°C and absolute neutrophil count <500/mm^3) or when clinically indicated. The use of G-CSF was not allowed during the first two cycles of chemotherapy, but was allowed in the later cycles (3 - 6) only if clinically indicated (i.e. as a secondary prophylaxis in those patients who experienced prolonged neutropenia or delayed neutrophil recovery).
(§1) Before and during the course of the clinical trial, patients were monitored with complete history, physical examinations, and laboratory tests including complete blood cell counts, serum chemistry, urinalysis, chest X-ray, and electrocardiograph. Blood counts were performed three times a week until the expected nadir period was reached and then daily until the counts had recovered. Serum samples were examined for antibodies reactive to full length TPO three times prior to study and weekly while on study. Positive sera (optical density ratio ≥1.5) were further analyzed by anti-truncated TPO antibody assay, C-mpl blocking assay, and cell-proliferation biologic assay. Patients positive in all assays were considered to be at risk for antibody-induced thrombocytopenia. Bone marrow (BM) aspiration and biopsy were done in all patients before, and one week after rhTPO treatment, and in selected patients at a later time point (day 10 or 14) in the prechemotherapy cycle. Tumor response was evaluated by physical examination, tumor marker (CA-125) evaluation, and imaging studies performed at periodic intervals.
Hematopoietic toxicity from Cycle-1 1 of chemotherapy (no rhTPO) was compared with the results from Cycle-2 (with rhTPO) by means of a paired T test for continuously measured variables.

The test system of another data set is gynecologic malignancy. Briefly: Phase I/II carboplatin study: tumor response. It is filed as in vivo, humans. Conditions: carboplatin AUC 11 with or without rhTPO, 25 evaluable patients. As to the method: as §1
Data set [2] is described as follows: Phase I/II carboplatin study: clinical tolerance, adverse events, anti-TPO antibodies. The format is in vivo, humans.
The mark [3] stands for this setting: 22 patients, C-1 (C) or C-2 (C+T), mean ± SEM.
Setting [4] is: Cycle-1 Carboplatin alone or Cycle-2 Carboplatin + rhTPO, n=27.

With `N=C(N)NC(=O)c1nc(Cl)c(N)nc1N` [Amiloride], the “effect on in vitro aggregation of platelets” value in the data set with platelets is “effectively and reversibly blocks”.
As to `N.N.O=C([O-])C1(C(=O)[O-])CCC1.[Pt+2]` [Carboplatin], the Major responses with recurrent ovarian cancer is 27%. The “Nadir PLT” value in data set [1] (22 patients, all rhTPO doses, C-1 carboplatin alone (C), C-2 carboplatin + rhTPO (C+T), mean ± SEM) is 20 ±5 x10^3/mm^3. Besides, the “No. (%) of PTS transfused” value in data set [1] (22 patients, C-1 (C) or C-2 (C+T)) is listed as 11 (50). In addition, in data set [1] (setting [3]), the “Days PLT <50 × 10^3/mm^3” value is 6.3 ±1.0 days and the “Days PLT <100 × 10^3/mm^3” value was determined as 10.3 ± 1.3 days. Further, the “Number (%) of Patients Requiring Platelet Transfusions” value in data set [1] (All Patients (0.6 - 3.6 mcg/kg) n=27) was 16 (59%). Also, the “Number (%) of Patients Requiring Platelet Transfusions” value in data set [1] (Optimal Biologic Dose (1.2 mcg/kg) n=16) was 12(75%). The “incidence of thrombocytopenia requiring platelet transfusions” value in data set [1] (cycle-1 without rhTPO, secondary prophylaxis patients) is reported as 10 of 12. This compound also had a major tumor response in the data set with gynecologic malignancy of 50%. For the same compound, the “Fever, number of patients” value in data set [2] (Cycle-1 Carboplatin alone n=27 or Cycle-2 Carboplatin + rhTPO n=27) is 12. Further, in data set [2] (setting [4]), the “Anorexia, number of patients” value amounted to 14; the “Anorexia, number of patients experiencing grade ≥3 toxicity” value was found to be 1; the “Bone pain, number of patients” value is on record as 7; the “Chills, number of patients” value stood at 8. In data set [2] (setting [4]), the “Constipation, number of patients” value was determined as 11; the “Constipation, number of patients experiencing grade ≥3 toxicity” value is given as 2; the “Diarrhea, number of patients” value is given as 8; the “Diarrhea, number of patients experiencing grade ≥3 toxicity” value is listed as 1. Further, in data set [2] (setting [4]), the “Fatigue, number of patients” value was found to be 12; the “Fatigue, number of patients experiencing grade ≥3 toxicity” value was found to be 10; the “Headache, number of patients” value is recorded as 11; the “Headache, number of patients experiencing grade ≥3 toxicity” value was determined as 4. Also, in data set [2] (setting [4]), the “Mucositis, number of patients” value is 4; the “Myalgia, number of patients” value amounted to 10; the “Nausea, number of patients” value came to 18; the “Nausea, number of patients experiencing grade ≥3 toxicity” value is recorded as 3. The “Vomiting, number of patients” value in data set [2] (setting [4]) turned out to be 12. In addition, the “Vomiting, number of patients experiencing grade ≥3 toxicity” value in data set [2] (Cycle-1 Carboplatin alone, n=27) was 1.
For the compound `Nc1ncnc2c1ncn2[C@@H]1O[C@H](CO)[C@@H](O)[C@H]1O` [Adenosine], the “effect on in vitro aggregation of platelets” value with platelets was “reversibly inhibits”.
